The record followed here is US20250320140A1, “USE OF MEDIUM CHAIN PERACIDS FOR BIOFILM INHIBITION IN INDUSTRIAL RECIRCULATING WATER SYSTEMS” (ECOLAB USA INC., priority 2017, published 2025).

SMILES strings stand for the structures.

The data set can be described thus: Solubility of sulfonated peracids at pH 4. As to conditions: pH of 4. The format is physicochemical.

For the compound `O=C(CCCCCCCCCCS(=O)(=O)O)OO` [11-sulfoundecane peroxoic acid], the solubility result is listed as “about 1.3%”.
